From patent US20220031684A1, “PROPHYLACTIC EFFICACY OF SEROTONIN 4 RECEPTOR AGONISTS AGAINST STRESS” (THE TRUSTEES OF COLUMBIA UNIVERSITY IN THE CITY OF NEW YORK, priority 2019, published 2022)
Counter-ions that a name gives are not always drawn.

What was measured:
Type in all cases: in vivo
BALB/cJRj mice [1] = assay: Novelty suppressed feeding (NSF), acute anxiolytic-like effect; conditions: for lag for feeding in the NSF: single dose 1.5 mg/kg, 72 hours after the injection
Experimental: RS67333 (1.5 mg/kg, i.p.), diazepam (1.5 mg/kg, i.p.), fluoxetine (18 mg/kg, i.p.) were injected 45 min before testing in the Elevated Plus Maze (EPM), the Novelty Suppressed Feeding (NSF) or the Open Field (OF) in three independent cohorts of male BALB/cJRj mice.
To ensure the selectivity of the anxiolytic-like effects of RS67333, in a new cohort of male BALB/cJRj mice, GR125487 (1.0 mg/kg, i.p.) dissolved in 0.9% NaCl solution, was injected 15 minutes before RS67333 administration (1.5 mg/kg, i.p.). EPM or NSF occurred 45 min after RS67333 administration (A-S1). Behavioral consequences of the co-administration of GR125487+RS67333 were compared to RS67333 alone, diazepam (1.5 mg/kg, i.p.) fluoxetine (18 mg/kg, i.p.) and vehicle groups (0.9% saline solution, i.p.).
For mPFC drug infusion, two bilateral cannulae (75 μm-diameter silica capillary tubing inserted in 27G stainless steel catheter) were implanted in the mPFC [stereotaxic coordinates in mm from bregma: A=+2.10, L=±0.50, V=−2.60, A, anterior; L, lateral; and V, ventral, according to (A-S10)] under anesthesia (chloral hydrate, 400 mg/kg, i.p.). […] Diazepam (1.5 mg/kg) was used as a positive control.
The NSF is a conflict test that elicits competing motivations: the drive to eat and the fear of venturing into the center of a brightly lit arena. The latency to begin eating is used as an index of anxiety/depression-like behavior, because classical anxiolytic drugs as well as chronic antidepressants decrease this measure. The NSF test was carried out during a 10 min period as previously described (A-S12). Briefly, the testing apparatus consisted of a plastic box (50×50×20 cm), the floor of which was covered with approximately 2 cm of wooden bedding. Twenty-four hours prior to behavioral testing, all food was removed from the home cage. At the time of testing, a single pellet of food (regular chow) was placed on a white paper platform positioned in the center of the box. Each animal was placed in a corner of the box, and a stopwatch was immediately started. The latency to eat (defined as the mouse sitting on its haunches and biting the pellet with the use of forepaws) was timed. Immediately afterwards, the animal was transferred to its home cage, and the amount of food consumed by the mouse in the subsequent 5 min was measured, serving as a control for change in appetite as a possible confounding factor.

BALB/cJRj mice [2] = assay: Splash Test after single dose; conditions: single systemic dose 1.5 mg/kg, 45 minutes before test
Experimental: Having shown that RS 67333 was provided with prophylactic properties, we subsequently sought to gain knowledge of this molecule in the long term, i.e. to find out whether the anxiolytic response brought about by RS 67333 is sustainable over time. In order to achieve this, the BALB/cJRj mice were systemically injected with a single dose of RS 67333 (1.5 mg/kg) or diazepam (1.5 mg/kg), 45 minutes before performing the Splash Test. The following day, the mice underwent the EPM without having received another dose of RS, and then at the open field 24 hours later, and, finally, to NSF 24 hours after the open field (FIG. 15A).

BALB/cJRj mice [3] = assay: OF with optogenetic inhibition of mPFC terminals in the DRN (CaMKII-ArchT); conditions: intra-mPFC RS67333 0.5 pg/side or diazepam 1.5 pg/side; for inhibition of the drug-induced increase in center time (OF) during 3-min green light illumination: light ON
Description: Motor activity was quantified in four 39×39 cm perpex plastic open field boxes (Vivo-tech/Ugo Basile, Salon de Provence, France). The apparatus was illuminated from the ground with special designed 40×40 cm Infra-red backlights (monochromatic wavelength 850 nm high homogeneity, Vivo-tech, Salon de Provence, France). Activity chambers were monitored by four black and white cameras with varifocal optics and polarizing filters (Vivo-tech, Salon de Provence, France). For optogenetic experiments, optical bandpass filters were specifically selected to improve tracking detection. The whole set-up was controlled using ANYMAZE version 6 video tracking software (Stoelting Co/Vivo-tech, Salon de Provence, France). Dependent measures were time in the center over a 10 min for systemic administration or 6 min test period for optogenetic experiments, total ambulatory distance and ambulatory distance traveled in the center divided by total distance.
(§1) To target opsin expression selectively to cortical glutamatergic terminals in the DRN, AAV5-CaMKIIα-ChR2-enhanced yellow fluorescent protein (eYFP), AAV5-CaMKII-ArchT-green fluorescent protein (GFP) or AAV5-CaMKII-eYFP, obtained from Karl Deisseroth and Ed Boyden (UNC Vector Core, NC, USA) were bilaterally injected into the mPFC (in mm from bregma, A=+2.10, L=±0.50, V=−2.60). Mice injected with AAV5-CamKII-eYFP were used as control.
(§2) BALB/cJRj mice were surgically implanted with fiber optics targeted to the DRN (in mm from bregma, A=−4.50, L=+1.20, V=−4.0, angle 15°). A […] core, 0.37 NA fiber optic (ThorLabs, ˜10-12 and 15-16 mW for ChR2 and Arch-T, respectively, at the tip of optic) was used for optical stimulation via a patch cable connected to either a 473 or 532 nm laser diode (OEM laser systems, USA) as previously described (A-S15). For behavioral experiments, AAV5-CaMKIIα-ChR2-eYFP mice and their controls received a 10 Hz stimulation, 20 ms pulses, over a 3-minute period whereas a green light was delivered continuously to AAV5-CaMKII-ArchT-GFP throughout the 3 min testing period. Similar doses of RS67333 (locally in the mPFC at […] or at 1.5 mg/kg, i.p.) and diazepam (locally in the mPFC at […] or at 1.5 mg/kg, i.p.) were infused in the mPFC or administered i.p. The stimulation or the inhibition of mPFC projections in the DRN occurred simultaneously to the behavioral paradigms.

BALB/cJRj mice [4] = assay: EPM with optogenetic inhibition of mPFC terminals in the DRN (CaMKII-ArchT); conditions: for time, percent time spent in the open arms (EPM), light OFF / inhibition of the drug-induced increase in open-arm time (EPM) during 3-min green light illumination: intra-mPFC RS67333 0.5 pg/side or diazepam 1.5 pg/side; for inhibition of the drug-induced increase in open-arm time (EPM) during 3-min green light illumination: light ON
Experimental: The EPM is a widely used behavioral assay for rodents and it has been validated to assess the anti-anxiety effects of pharmacological agents (A-S11). This test was performed as described by (A-S1). The maze is a plus-cross-shaped apparatus, with two open arms and two arms closed by walls linked by a central platform 50 cm above the floor. Mice were individually put in the center of the maze facing an open arm and were allowed to explore the maze during 5 min for the behavioral consequences of an acute systemic administration or mPFC infusion and during 6 min for the optogenetic experiments. The time spent in and the numbers of entries into the open arms were used as an anxiety index. All parameters were measured using a videotracker (EPM3C, Bioseb, Vitrolles, France).
as §1, §2

[5] = CaMKII-ArchT-mPFC injected mice, systemic RS67333 1.5 mg/kg or diazepam 1.5 mg/kg
[6] = CamKII-ArchT mice, intra-mPFC infusion

| Structure (SMILES) | latency to feed (NSF) vs vehicle (BALB/cJRj mice [1]; male BALB/cJRj, i.p. 45 min before testing, RS67333 1.5, diazepam 1.5, fluoxetine 18 mg/kg, hydrochloride) | lag for feeding in the NSF (BALB/cJRj mice [1]) | grooming time (Splash Test) (BALB/cJRj mice [2]) | time spent in the center (OF), light OFF (BALB/cJRj mice [3]) | inhibition of the drug-induced increase in center time (OF) during 3-min green light illumination (BALB/cJRj mice [3]) [%] | decrease in time spent in the open arms (EPM), light ON vs light OFF (BALB/cJRj mice [4]; [5]) [%] | time, percent time in open arms and ratio open arms/total distance (EPM), light OFF vs vehicle (BALB/cJRj mice [4]; [5]) | time, percent time spent in the open arms (EPM), light OFF (BALB/cJRj mice [4]; CamKII-ArchT mice) | inhibition of the drug-induced increase in open-arm time (EPM) during 3-min green light illumination (BALB/cJRj mice [4]; CamKII-ArchT mice) [%] | drug-induced increase of ratio open arms/total distance (EPM), light ON (BALB/cJRj mice [4]; [6]) | ratio of ambulatory distance in open arms divided by total distance (EPM), light OFF vs controls (BALB/cJRj mice [4]; [6]) | latency to feed (NSF) vs vehicle (BALB/cJRj mice [1]; intra-mPFC infusion of RS67333 45 min before testing) | latency to feed (NSF) vs vehicle (BALB/cJRj mice [1]; male BALB/cJRj, i.p. 45 min before testing, RS67333 1.5, diazepam 1.5, fluoxetine 18 mg/kg) | number of grooming episodes (Splash Test) (BALB/cJRj mice [2]) |
| --- | --- | --- | --- | --- | --- | --- | --- | --- | --- | --- | --- | --- | --- | --- |
| CN1C(=O)CN=C(c2ccccc2)c2cc(Cl)ccc21 [diazepam, Diazepam hydrochloride] | decreased the latency to feed | have not been able to observe any long-term activity | not identify any effect in the Splash Test | increased significantly the time spent in the center | 80±22 | 17 | increased time, percent time spent in open arms | increased significantly time | 85±5 | blocked | increased the ratio | – | – | – |
| CCCCN1CCC(CCC(=O)c2cc(Cl)c(N)cc2OC)CC1.Cl [RS-67,333, 1-(4-amino-5-chloro-2-methoxyphenyl)-3-[1(n-butyl)-4-piperidinyl]-1-propanone HCl] | – | reduced the lag for feeding | increased the grooming time | increased significantly the time spent in the center | 85±20 | 24 | – | increased significantly time | 70±8 | – | – | decreased latency to feed | decreased the latency to feed | without affecting the number of episodes |
